Measurements reported in article PMC7948503, “Optimization of a peptide ligand for the adhesion GPCR ADGRG2 provides a potent tool to explore receptor biology” (The Journal of Biological Chemistry, 2020).
pEC50: −log10 of the molar value. Non-standard residues stand in square brackets, D forms with d. Residues, ends and D or L forms follow the SMILES beside them. Phe(4-Me) = Cc1ccc(C[C@H](N)C(=O)O)cc1

Columns and labels:
Test in all cases: GloSensor cAMP assay
Assay type in all cases: cell-based
ADGRG2-ΔGPS-β L679A = target: T1, ADGRG2-ΔGPS-β L679A (Mus musculus, UniProt Q8CJ12, L693A); conditions: mutant L679A; HEK293, cAMP Glosensor
T1 construct: expressed in transfected cells; host or cells: HEK293
T1 sequence (Q8CJ12 614-1009 L693A): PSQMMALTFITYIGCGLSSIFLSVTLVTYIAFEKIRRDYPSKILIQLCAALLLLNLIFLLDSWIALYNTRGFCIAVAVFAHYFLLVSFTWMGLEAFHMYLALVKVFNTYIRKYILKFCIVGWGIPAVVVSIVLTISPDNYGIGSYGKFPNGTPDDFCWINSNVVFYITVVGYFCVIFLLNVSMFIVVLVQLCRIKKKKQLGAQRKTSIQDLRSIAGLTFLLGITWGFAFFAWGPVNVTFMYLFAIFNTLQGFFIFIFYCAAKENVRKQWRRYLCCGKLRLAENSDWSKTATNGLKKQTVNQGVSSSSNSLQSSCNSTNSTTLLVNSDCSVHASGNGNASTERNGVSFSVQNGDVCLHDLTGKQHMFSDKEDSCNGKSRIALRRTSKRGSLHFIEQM
Source text: (§1) Wildtype ADGRG2 full-length (ADGRG2-FL) was cloned from mouse total cDNA libraries using the following primers: forward, […]; reverse, […], and then ADGRG2-FL, ADGRG2 C-terminal truncation mutant (ADGRG2-β), and ADGRG2-ΔGPS-β (the entire ECD of ADGRG2 was deleted) were subcloned into the pcDNA3.1 expression vector. The ADGRG2-ΔGPS-β mutants (T610A, Y611A, C614A, S661A, W662A, I663A, L665A, Y666A，N667A, F671A, L679A, L683A, I730A, V731A, F741A, F747A, W757A, I758A, N759A, S760A, V762A, F764A, Y765A, V768A, V769A, F772A, V774A, W824A, F826A, F828A, F829A, V834A, V836A, F838A, M839A, I844A, F845A) were generated using a QuikChange Mutagenesis Kit (Stratagene). All mutations were verified by DNA sequencing.
(§2) The Glosensor cAMP assay was performed as described ([6], [39], [40]). HEK293 cells were transfected with the GloSensor plasmid and the desired expression plasmids in 24-well dishes. Twenty-four hours after transfection, the cells were plated on 96-well plates at a cell density of 20,000 cells/well. The cells were maintained in Dulbecco’s modified Eagle’s medium for another 24 h, washed with PBS, and then incubated with 100 μl of solution containing 10% fetal bovine serum, 2% (v/v) GloSensor cAMP reagent, and 88% CO2-independent medium in each well for 2 h. The cAMP signal was examined using a luminescence counter (Mithras LB 940).

ADGRG2-ΔGPS-β V774A = target: T2, ADGRG2-ΔGPS-β V774A (Mus musculus, UniProt Q8CJ12, V788A); conditions: mutant V774A; HEK293, cAMP Glosensor
T2 construct: expressed in transfected cells; host or cells: HEK293
T2 sequence (Q8CJ12 614-1009 V788A limits assumed): as the sequence (Q8CJ12 614-1009 L693A) above, with A80L, V175A counted along it
Source text: as §1, §2

ADGRG2-ΔGPS-β V768A = target: T3, ADGRG2-ΔGPS-β V768A (Mus musculus, UniProt Q8CJ12, V782A); conditions: mutant V768A; HEK293, cAMP Glosensor
T3 construct: expressed in transfected cells; host or cells: HEK293
T3 sequence (Q8CJ12 614-1009 V782A): as the sequence (Q8CJ12 614-1009 L693A) above, with A80L, V169A counted along it
Source text: as §1, §2

ADGRG2-ΔGPS-β W757A = target: T4, ADGRG2-ΔGPS-β W757A (Mus musculus, UniProt Q8CJ12, W771A); conditions: mutant W757A; HEK293, cAMP Glosensor
T4 construct: expressed in transfected cells; host or cells: HEK293
T4 sequence (Q8CJ12 614-1009 W771A): as the sequence (Q8CJ12 614-1009 L693A) above, with A80L, W158A counted along it
Source text: as §1, §2

ADGRG2-ΔGPS-β Y765A = target: T5, ADGRG2-ΔGPS-β Y765A (Mus musculus, UniProt Q8CJ12, Y779A); conditions: mutant Y765A; HEK293, cAMP Glosensor
T5 construct: expressed in transfected cells; host or cells: HEK293
Source text: as §1, §2

ADGRG2-ΔGPS-β W662A = target: T6, ADGRG2-ΔGPS-β W662A (Mus musculus, UniProt Q8CJ12, W676A); conditions: mutant W662A; HEK293, cAMP Glosensor
T6 construct: expressed in transfected cells; host or cells: HEK293
T6 sequence (Q8CJ12 614-1009 W676A): as the sequence (Q8CJ12 614-1009 L693A) above, with W63A, A80L counted along it
Source text: as §1, §2

ADGRG2-ΔGPS-β L665A = target: T7, ADGRG2-ΔGPS-β L665A (Mus musculus, UniProt Q8CJ12, L679A); conditions: mutant L665A; HEK293, cAMP Glosensor
T7 construct: expressed in transfected cells; host or cells: HEK293
T7 sequence (Q8CJ12 614-1009 L679A): as the sequence (Q8CJ12 614-1009 L693A) above, with L66A, A80L counted along it
Source text: as §1, §2

ADGRG2-ΔGPS-β I844A = target: T8, ADGRG2-ΔGPS-β I844A (Mus musculus, UniProt Q8CJ12, I858A); conditions: mutant I844A; HEK293, cAMP Glosensor
T8 construct: expressed in transfected cells; host or cells: HEK293
T8 sequence (Q8CJ12 614-1009 I858A): as the sequence (Q8CJ12 614-1009 L693A) above, with A80L, I245A counted along it
Source text: as §1, §2

ADGRG2-ΔGPS-β L683A = target: T9, ADGRG2-ΔGPS-β L683A (Mus musculus, UniProt Q8CJ12, L697A); conditions: mutant L683A; HEK293, cAMP Glosensor
T9 construct: expressed in transfected cells; host or cells: HEK293
T9 sequence (Q8CJ12 614-1009 L697A): as the sequence (Q8CJ12 614-1009 L693A) above, with A80L, L84A counted along it
Source text: as §1, §2

ADGRG2-ΔGPS-β N759A = target: T10, ADGRG2-ΔGPS-β N759A (Mus musculus, UniProt Q8CJ12, N773A); conditions: mutant N759A; HEK293, cAMP Glosensor
T10 construct: expressed in transfected cells; host or cells: HEK293
T10 sequence (Q8CJ12 614-1009 N773A): as the sequence (Q8CJ12 614-1009 L693A) above, with A80L, N160A counted along it
Source text: as §1, §2

ADGRG2-ΔGPS-β N667A = target: T11, ADGRG2-ΔGPS-β N667A (Mus musculus, UniProt Q8CJ12, N681A); conditions: mutant N667A; HEK293, cAMP Glosensor
T11 construct: expressed in transfected cells; host or cells: HEK293
T11 sequence (Q8CJ12 614-1009 N681A): as the sequence (Q8CJ12 614-1009 L693A) above, with N68A, A80L counted along it
Source text: as §1, §2

ADGRG2-ΔGPS-β Y611A = target: T12, ADGRG2-ΔGPS-β Y611A (Mus musculus, UniProt Q8CJ12, Y625A); conditions: mutant Y611A; HEK293, cAMP Glosensor
T12 construct: expressed in transfected cells; host or cells: HEK293
T12 sequence (Q8CJ12 614-1009 Y625A): as the sequence (Q8CJ12 614-1009 L693A) above, with Y12A, A80L counted along it
Source text: as §1, §2

ADGRG2-ΔGPS-β V834A = target: T13, ADGRG2-ΔGPS-β V834A (Mus musculus, UniProt Q8CJ12, V848A); conditions: mutant V834A; HEK293, cAMP Glosensor
T13 construct: expressed in transfected cells; host or cells: HEK293
T13 sequence (Q8CJ12 614-1009 V848A): as the sequence (Q8CJ12 614-1009 L693A) above, with A80L, V235A counted along it
Source text: as §1, §2

ADGRG2-ΔGPS-β F829A = target: T14, ADGRG2-ΔGPS-β F829A (Mus musculus, UniProt Q8CJ12, F843A); conditions: mutant F829A; HEK293, cAMP Glosensor
T14 construct: expressed in transfected cells; host or cells: HEK293
T14 sequence (Q8CJ12 614-1009 F843A): as the sequence (Q8CJ12 614-1009 L693A) above, with A80L, F230A counted along it
Source text: as §1, §2

ADGRG2-ΔGPS-β S760A = target: T15, ADGRG2-ΔGPS-β S760A (Mus musculus, UniProt Q8CJ12, S774A); conditions: mutant S760A; HEK293, cAMP Glosensor
T15 construct: expressed in transfected cells; host or cells: HEK293
T15 sequence (Q8CJ12 614-1009 S774A): as the sequence (Q8CJ12 614-1009 L693A) above, with A80L, S161A counted along it
Source text: as §1, §2

`CC[C@H](C)[C@H](NC(=O)CNC(=O)[C@H](Cc1ccc(C)cc1)NC(=O)[C@H](CO)NC(=O)[C@@H](N)C(C)C)C(=O)N[C@@H](CC(C)C)C(=O)N[C@@H](CC(C)C)C(=O)N[C@@H](CC(=O)O)C(=O)N[C@@H](CC(C)C)C(=O)N[C@@H](CO)C(=O)N[C@@H](CCCNC(=N)N)C(=O)N[C@H](C(=O)N[C@@H](CO)C(=O)N[C@@H](CC(C)C)C(=O)N1CCC[C@H]1C(=O)O)[C@@H](C)O` [VPM-p15] (H-VS[Phe(4-Me)]GILLDLSRTSLP-OH) gave a pEC50 (ADGRG2-ΔGPS-β L679A) of 5.93, a pEC50 (ADGRG2-ΔGPS-β V774A) of 5.89 and a pEC50 (ADGRG2-ΔGPS-β V768A) of 5.13. It also gave a pEC50 (ADGRG2-ΔGPS-β W757A) of 4.85, a pEC50 (ADGRG2-ΔGPS-β Y765A) of 5.97 and a pEC50 (ADGRG2-ΔGPS-β W662A) of 5.81. It also gave a pEC50 (ADGRG2-ΔGPS-β L665A) of 5.80, a pEC50 (ADGRG2-ΔGPS-β I844A) of 4.89 and a pEC50 (ADGRG2-ΔGPS-β L683A) of 5.88. For the same compound, the pEC50 (ADGRG2-ΔGPS-β N759A) was 5.32, the pEC50 (ADGRG2-ΔGPS-β N667A) was 5.91 and the pEC50 (ADGRG2-ΔGPS-β Y611A) was 5.97. For the same compound, the pEC50 (ADGRG2-ΔGPS-β V834A) was 5.94, the pEC50 (ADGRG2-ΔGPS-β F829A) was 5.94 and the pEC50 (ADGRG2-ΔGPS-β S760A) was 5.71.
